Measurements from US10821078B2, “Nanostructure enhanced targeting (NSET) of inflammatory cells” (Northwestern University, priority 2016, dated 2020).
Like-named read-outs stand apart in the source and are kept apart here.

What was measured:
[1] = Organ-level biodistribution of ICG-loaded nanostructures by IVIS NIR fluorescence imaging; format: in vivo, mouse; conditions: 24 h after I.V. injection, C57BL/6 mice
From the text: Nanomaterials have been widely used to deliver therapeutic agents in vivo, and their tissue distribution can either limit or enhance such applications. ICG-loaded MC, PS and FM were therefore assembled at a 33:1 molar ratio of copolymer:dye, and their biodistributions were compared to control injections of free form ICG and PBS in naïve C57BL/6 mice. Liver, spleen, kidneys, lung and heart were harvested and investigated with an IVIS optical imaging system. Following I.V. injection, ICG usually has a half-life of less than 10 minutes primarily due to removal from circulation in the liver.
The ICG-loaded MC, PS and FM were prepared with the optimal molar ratio of PEG-bl-PPS:ICG (33:1) and suspended in PBS. Free ICG (50 μg/mL in PBS solution) served as a control. C57BL/6 mice (n=6) were injected intravenously with 150 μl of free ICG, MC, PS and FM (7.5 μg of loaded ICG in each sample). At different time points (1 h, 24 h, and 48 h post-injection), whole-body NIR fluorescence imaging was performed using an IVIS Lumina (Center for Advanced Molecular Imaging, Northwestern University) with λexc=745 nm, λem=810 nm, exposure time=2 s and f/stop=2. For organ NIR fluorescence imaging, animals were euthanized by carbon dioxide and liver, spleen, kidney, heart, and lung were harvested in petri dishes and imaged by the IVIS Lumina with the same parameters as previous.

[2] = removal from circulation in the liver; cited from earlier work
[3] = tested on: macrophages (CD11b+F4/80+); conditions: mouse, in vivo
Experimental: Multi-color flow cytometry was performed to evaluate the uptake of NS of the present invention within cells of the innate and adaptive immune system. Mice were administered DyLight 650-labeled PS, MC and FM by tail vein injection. After different time points (1 h, 24 h, and 48 h), spleen, LN, liver, kidneys, and blood were collected and prepared into single cell suspensions for analysis (gating strategies shown in FIG. 11). For all organs evaluated, NS were predominantly taken up by phagocytic cells in the MPS (FIG. 3, FIG. 12).
C57BL/6 female mice (n=6-8), were injected intravenously with 150 μl of MC, PS, and FM with block copolymer concentration of 15 mg/mL. At different time points (1 h, 24 h, and 48 h post-injection), mice were anesthetized by intraperitoneal (i.p.) injection of a mixture of Ketamine/Xylazine followed by exsanguination. Blood was collected by retro-orbital puncture with BD Microtainer tubes and dipotassium EDTA (BD Biosciences). Serum was separated by centrifugation at 3000 rpm at 4° C. for 25 min. Fluorescence intensity of each nanostructure was normalized by diluting NS solutions in PBS and measuring the fluorescence using a spectrophotometer. The fluorescence of blood serum was measured with an excitation of 655 nm and the emission of 675 nm and correlated with the normalized standard curve for each DyLight 650-labeled NS. To prepare white blood cell suspensions, blood cells were washed twice with 10 ml PBS and treated 3× with ammonium-chloride-potassium (ACK) lysis buffer (Invivogen) to eliminate red blood cells. Liver, spleen, LN (popliteal, inguinal, axillary and brachial), and kidneys were harvested, gently dissociated and incubated in a 12-well plate with each well of 2 ml Collagenase D (2 mg/mL) for 45 min at 37° C. and 5% CO2. Single-cell suspensions were prepared by mechanical dissociation and passing through a 70 μm cell strainer. Anti-mouse CD16/CD32 was used to block FcRs and Zombie Aqua fixable viability dye was used to determine live/dead cells. For flow cytometric analysis, cells were stained using cocktails of fluorophore-conjugated anti-mouse antibodies: panel 1: CD45-FITC, CD3-APC/Cy7, CD4-PE, CD8α-PE/Cy7, NK1.1-PerCP-Cy5.5, CD19-Pacific Blue; panel 2: I-A/I-E-FITC, CD11c-Pacific Blue, CD8α-PE-Cy7, CD11b-PerCP-Cy5.5, CD45RB/B220-PE, Gr-1-APC-Cy7; and panel 3: F4/80-FITC, CD11c-Pacific Blue, CD11b-PerCP-Cy5.5, Ly6C-APC/Cy7, Ly6G-PE/Cy7. After washes, cells were fixed by IC cell fixation buffer (Biosciences). Flow cytometry was performed with FACSDiva on a LSRII flow cytometer (BD Biosciences) and data were analyzed with FlowJo software.

| Compound | ICG fluorescence in organs [1] | half-life following I.V. injection [2] | decrease in uptake by liver macrophages on switching from MC to PS morphology [3] | percentage of macrophages nanostructure positive [3] | percentage of macrophages nanostructure positive ([3]; iv) |
| --- | --- | --- | --- | --- | --- |
| CC1(C)C(/C=C/C=C/C=C/C=C2\N(CCCCS(=O)(=O)O)c3ccc4ccccc4c3C2(C)C)=[N+](CCCCS(=O)(=O)[O-])c2ccc3ccccc3c21 [ICG, indocyanine green] | no observable fluorescence | less than 10 minutes |  |  |  |
| PEG17-bl-PPS30 |  |  | over 50% | 40% | 30%-40% |
| PEG44-bl-PPS45 [FM] |  |  |  | 25% |  |
| PEG45-bl-PPS20 [MC] |  |  |  | over 90% |  |
